Laboratory results as given in ChEMBL document CHEMBL5137025, “Tuberculosis Drug Discovery: Challenges and New Horizons” (J Med Chem, 2022).
≈ marks a conversion by molar mass, not a printed value.

Assays:
HepG2 [1] = assay: Cytotoxicity against human HepG2 cells; assay type: functional
[2] = system: Mycobacterium tuberculosis; assay: Antibacterial activity against Mycobacterium tuberculosis in acute Mtb infection mouse model assessed as reduction in log10 CFU at 25 mg/kg treated for 3 weeks; assay type: functional
[3] = Inhibition of bacterial DdlA; design: species or system Bacteria
[4] = system: Mycobacterium tuberculosis; assay: microbe, parasite or virus in culture; conditions: H37Rv
Description: Antibacterial activity against Mycobacterium tuberculosis H37Rv assessed as inhibition of bacterial growth

[5] = system: Mycobacterium tuberculosis; assay type: functional, H37Rv; conditions: dose 20-200 mg/kg; route po; time 4 weeks
[6] = system: Mycobacterium tuberculosis; assay type: functional; conditions: H37Rv, 168 h, time 7 day
[7] = Stability in mouse liver microsome assessed as half life by Reverse-phase HPLC analysis; assay type: ADME; conditions: liver microsomes
[8] = Protein binding in human plasma incubated for 5 hrs by LC-MS/MS analysis; assay type: ADME, cell-free; conditions: read-out: PPB (converted)
[9] = system: Mycobacterium tuberculosis; assay type: functional, H37Rv; conditions: dose 100 mg/kg; route po; time 4 weeks
[10] = target: Voltage-gated inwardly rectifying potassium channel KCNH2 (Homo sapiens, UniProt Q12809)
[11] = system: Mycobacterium tuberculosis; assay type: functional, H37Rv; conditions: dose 100 mg/kg; time 8 weeks
[12] = Kinetic solubility of the compound; assay type: physicochemical; conditions: read-out: Kinetic_solubility
[13] = system: Mycobacterium tuberculosis; assay type: functional, H37Rv; conditions: dose 200 mg/kg; time 8 day
[14] = Cytotoxicity against African green monkey Vero cells assessed as reduction in cell viability by MTT assay; assay type: toxicity, cell-based; conditions: chlorocebus sabaeus
[15] = Kinetic aqueous solubility of the compound incubated for 4.5 hrs by LC-MS/MS analysis; assay type: physicochemical; conditions: buffer, read-out: Kinetic_solubility
[16] = Half life in mouse; assay type: ADME, organism-based; conditions: in vivo
HepG2 [17] = assay: cells; conditions: Homo sapiens, HepG2, 40 h
Description: Cytotoxicity against human HepG2 cells treated for 40 hrs by Cell Titer Glo luminescence assay

[18] = system: Mycobacterium tuberculosis; assay type: functional; conditions: H37Rv
[19] = system: Mycobacterium tuberculosis; assay: Antibacterial activity against Mycobacterium tuberculosis infected in macrophage assessed as inhibition of bacterial growth in presence of Ethionamide; assay type: functional, organism-based
[20] = system: Mycobacterium tuberculosis; assay: Antibacterial activity against Mycobacterium tuberculosis Beijing strain in acute Mtb infection BALB/c mouse model assessed as reduction in log10 CFU in lungs at 50 mg/kg, po for 3 weeks; assay type: functional
[21] = system: Mycobacterium tuberculosis; assay type: functional; conditions: H37Rv, 336 h, time 14 day
[22] = system: Mycobacterium tuberculosis; assay: Antibacterial activity against Mycobacterium tuberculosis Erdman in acute Mtb infection BALB/c mouse model assessed as reduction in log10 CFU at 35 mg/kg, ip for 8 days; assay type: functional; conditions: time 8 day
[23] = Solubility of the compound; assay type: physicochemical
[24] = system: Mycobacterium tuberculosis; assay: Antibacterial activity against Mycobacterium tuberculosis in acute Mtb infection C57BL/6J mouse model assessed as reduction in log10 CFU in lungs at 350 mg/kg, po for 8 days; assay type: functional; conditions: time 8 day
[25] = system: Mycobacterium tuberculosis; assay type: functional, H37Rv; conditions: dose 40 mg/kg; route po; time 24 day
[26] = Inhibition of Mycobacterium tuberculosis ArgJ assessed as inhibition constant by measuring change in blue shift by ANS dye based displacement assay
[27] = system: Mycobacterium tuberculosis; assay type: functional, H37Rv; conditions: dose 50 mg/kg; route po; time 15 day
[28] = Inhibition of Mycobacterium tuberculosis Shikimate dehydrogenase expressed in Escherichia coli BL21 using shikimic acid as substrate incubated for 60 mins in presence of NADP+ by enzymatic assay
Cytochrome P450 1A2 = target: T1, Cytochrome P450 1A2 (Homo sapiens, UniProt P05177); assay: Inhibition of CYP1A2 in human liver microsome in presence of NADPH measured after 10 mins by LC/MS/MS analysis; assay type: microsomes
T1 sequence (P05177 whole entry): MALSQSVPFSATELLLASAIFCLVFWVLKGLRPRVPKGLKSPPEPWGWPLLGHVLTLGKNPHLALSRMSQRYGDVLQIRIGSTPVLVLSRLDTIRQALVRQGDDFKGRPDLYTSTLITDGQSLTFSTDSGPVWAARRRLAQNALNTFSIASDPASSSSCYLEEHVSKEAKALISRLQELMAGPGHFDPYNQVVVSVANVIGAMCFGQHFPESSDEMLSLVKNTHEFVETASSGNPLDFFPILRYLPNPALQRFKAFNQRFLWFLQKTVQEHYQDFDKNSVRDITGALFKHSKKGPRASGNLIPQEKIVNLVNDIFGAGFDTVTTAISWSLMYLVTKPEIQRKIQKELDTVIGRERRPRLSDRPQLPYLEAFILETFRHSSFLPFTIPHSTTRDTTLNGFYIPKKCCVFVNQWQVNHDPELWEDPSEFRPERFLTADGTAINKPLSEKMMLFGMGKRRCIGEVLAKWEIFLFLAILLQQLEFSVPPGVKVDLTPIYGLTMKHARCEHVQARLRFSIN

Cytochrome P450 2C9 = Cytochrome P450 2C9 (Homo sapiens, UniProt P11712); assay: Inhibition of CYP2C9 in human liver microsome in presence of NADPH measured after 10 mins by LC/MS/MS analysis; assay type: ADME, microsomes
Cytochrome P450 2C19 = Cytochrome P450 2C19 (Homo sapiens, UniProt P33261); assay: Inhibition of CYP2C19 in human liver microsome in presence of NADPH measured after 10 mins by LC/MS/MS analysis; assay type: ADME, microsomes
[29] = Metabolic stability in human liver microsomes assessed as half life in presence of NADPH regenerating system measured for 5 to 60 mins by LC/MS/MS analysis; assay type: ADME, Microsome; conditions: time 5-60 min
[30] = Metabolic stability in mouse liver microsomes assessed as half life in presence of NADPH regenerating system measured for 5 to 60 mins by LC/MS/MS analysis; assay type: ADME, Microsome; conditions: time 5-60 min
[31] = Metabolic stability in rat liver microsomes assessed as half life in presence of NADPH regenerating system measured for 5 to 60 mins by LC/MS/MS analysis; assay type: ADME, Microsome; conditions: time 5-60 min
[32] = Half life in Sprague-Dawley rat at 5 mg/kg, po measured for 0.083 to 24 hrs by LC-MS/MS analysis; assay type: ADME, organism-based; conditions: in vivo, time 0.083-24 hrs
[33] = Oral bioavailability in Sprague-Dawley rat at 5 mg/kg measured for 0.083 to 24 hrs by LC-MS/MS analysis; assay type: ADME, organism-based; conditions: in vivo, time 0.083-24 hrs
[34] = system: Mycobacterium tuberculosis; assay type: functional; conditions: H37Rv, time 6 day
[35] = system: Mycobacterium tuberculosis; assay type: functional, H37Rv; conditions: dose 18 mg/kg; time 8 day
[36] = system: Mycobacterium tuberculosis; assay type: functional; conditions: H37Rv, time 6 day; remark: listed apart in the source
[37] = system: Mycobacterium tuberculosis; assay type: functional, H37Rv; conditions: dose 200 mg/kg; route po; time 10 day
HepG2 [38] = assay: Cytotoxicity against human HepG2 cells assessed as reduction in cell viability treated for 3 days by resazurin reduction microplate assay; assay type: functional; conditions: HepG2, 72 h, time 3 day

Sequence of Voltage-gated inwardly rectifying potassium channel KCNH2 (Q12809 whole entry): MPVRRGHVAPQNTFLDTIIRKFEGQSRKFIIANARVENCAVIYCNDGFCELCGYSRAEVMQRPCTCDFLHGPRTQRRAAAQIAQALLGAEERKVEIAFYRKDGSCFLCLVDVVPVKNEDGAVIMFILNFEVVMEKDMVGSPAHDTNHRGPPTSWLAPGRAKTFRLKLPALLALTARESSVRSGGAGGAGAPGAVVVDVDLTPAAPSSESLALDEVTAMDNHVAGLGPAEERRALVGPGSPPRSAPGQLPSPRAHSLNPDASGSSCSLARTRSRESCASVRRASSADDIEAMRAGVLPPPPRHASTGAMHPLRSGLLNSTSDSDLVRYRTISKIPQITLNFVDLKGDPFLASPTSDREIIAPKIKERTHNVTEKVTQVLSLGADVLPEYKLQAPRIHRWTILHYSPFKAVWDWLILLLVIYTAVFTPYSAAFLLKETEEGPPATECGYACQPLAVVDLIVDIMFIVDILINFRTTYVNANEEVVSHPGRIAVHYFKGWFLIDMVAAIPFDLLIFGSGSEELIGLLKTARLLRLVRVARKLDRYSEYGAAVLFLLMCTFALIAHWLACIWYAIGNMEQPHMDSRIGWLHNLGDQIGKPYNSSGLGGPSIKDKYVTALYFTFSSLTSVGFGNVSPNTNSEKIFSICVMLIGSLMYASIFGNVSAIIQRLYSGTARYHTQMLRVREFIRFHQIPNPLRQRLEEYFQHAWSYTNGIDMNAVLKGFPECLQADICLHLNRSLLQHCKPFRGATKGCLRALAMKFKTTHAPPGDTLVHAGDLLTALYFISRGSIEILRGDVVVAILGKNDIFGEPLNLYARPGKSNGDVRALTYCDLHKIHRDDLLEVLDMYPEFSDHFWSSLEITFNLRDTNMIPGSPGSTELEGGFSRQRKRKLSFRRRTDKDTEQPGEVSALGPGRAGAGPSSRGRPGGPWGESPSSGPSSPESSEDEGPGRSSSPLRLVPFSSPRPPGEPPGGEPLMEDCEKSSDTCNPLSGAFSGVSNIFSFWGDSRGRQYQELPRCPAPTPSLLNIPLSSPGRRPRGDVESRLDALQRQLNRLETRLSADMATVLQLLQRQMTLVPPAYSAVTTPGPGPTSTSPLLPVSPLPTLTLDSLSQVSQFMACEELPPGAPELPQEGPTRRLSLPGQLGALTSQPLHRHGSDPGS
Sequence of Cytochrome P450 2C9 (P11712 whole entry): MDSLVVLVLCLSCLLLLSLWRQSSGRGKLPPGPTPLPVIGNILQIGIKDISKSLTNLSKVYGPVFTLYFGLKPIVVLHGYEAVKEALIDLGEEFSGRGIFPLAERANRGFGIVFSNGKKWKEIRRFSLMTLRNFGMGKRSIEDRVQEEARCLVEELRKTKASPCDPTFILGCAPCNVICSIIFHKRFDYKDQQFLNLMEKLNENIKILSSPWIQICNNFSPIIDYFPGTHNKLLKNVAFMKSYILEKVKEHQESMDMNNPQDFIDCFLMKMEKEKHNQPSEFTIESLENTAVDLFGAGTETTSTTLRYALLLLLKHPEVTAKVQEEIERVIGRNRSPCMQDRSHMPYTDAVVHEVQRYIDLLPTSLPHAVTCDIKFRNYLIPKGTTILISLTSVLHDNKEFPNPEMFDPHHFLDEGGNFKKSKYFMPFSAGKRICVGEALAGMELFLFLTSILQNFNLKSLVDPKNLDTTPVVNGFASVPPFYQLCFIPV
Sequence of Cytochrome P450 2C19 (P33261 whole entry): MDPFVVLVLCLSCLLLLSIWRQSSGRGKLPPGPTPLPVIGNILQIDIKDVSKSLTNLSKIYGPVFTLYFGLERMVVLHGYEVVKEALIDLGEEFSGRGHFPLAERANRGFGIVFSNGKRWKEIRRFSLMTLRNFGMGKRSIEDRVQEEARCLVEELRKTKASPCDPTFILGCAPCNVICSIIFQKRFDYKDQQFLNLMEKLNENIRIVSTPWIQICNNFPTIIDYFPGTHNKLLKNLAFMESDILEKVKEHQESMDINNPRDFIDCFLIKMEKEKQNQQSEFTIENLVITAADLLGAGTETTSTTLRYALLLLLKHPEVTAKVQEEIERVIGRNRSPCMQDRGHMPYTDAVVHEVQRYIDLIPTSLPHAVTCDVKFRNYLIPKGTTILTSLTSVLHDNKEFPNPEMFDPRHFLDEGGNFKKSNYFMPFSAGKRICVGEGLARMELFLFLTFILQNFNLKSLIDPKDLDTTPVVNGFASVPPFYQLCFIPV

What does the source list for `OC1(c2ccc(OC(F)F)cc2)C[N+](c2ccccc2)=C2CCCCN21.[Br-]` (stereo unspecified)?
CC50 (HepG2 [1]): 263 µM; Activity [2]: 1.2 log10CFU; IC50 [3]: 6.2 µM; MIC [4]: 1.1 µM

With `Cc1n[nH]c2ccc(NS(=O)(=O)CCCCF)cc12` as the molecule, how does the Activity [5] read?
The Activity was greater than 2 log10CFU.

And the MIC [6]?
The MIC was 0.2 µM (≈ 0.0571 µg/mL).

What about the half-life [7] of the same molecule?
The half-life was 28 min.

And the fraction unbound at 5 h [8]?
The fraction unbound at 5 h was 0.23.

What about the Activity [9] of the same molecule?
Its Activity is 2 log10CFU.

What about the IC50 [10] of the same molecule?
The IC50 was greater than 50 µM.

Which CC50 (HepG2 [1]) does the source give for `CCCCS(=O)(=O)Nc1ccc2cnn(C)c2c1` here?
Its CC50 is greater than 100 µM.

And the Activity [11]?
The Activity was 2.4 log10CFU.

And the solubility kinetic [12]?
The solubility kinetic was greater than 550 µM.

And the Activity [13]?
Its Activity is 3.5 log10CFU.

And the CC50 [14]?
Its CC50 is 170 µM.

And the solubility kinetic at 4.5 h [15]?
The solubility kinetic at 4.5 h was 175 µM (≈ 46.8 µg/mL).

And the half-life [7]?
The half-life was 10 min.

What about the IC50 [10] of the same molecule?
The IC50 was greater than 50 µM.

What about the MIC [4] of the same molecule?
The MIC was 0.8 µM (≈ 0.214 µg/mL).

Which results are given for `CCNC(=N)NC(=O)Nc1c(CC)cccc1CC`?
half-life [16]: 402 min; CC50 (HepG2 [17]): > 30 µM

Which results are given for `O=C(CCC(F)(F)F)N1CCC2(CC1)CC(c1ccccc1)=NO2`?
half-life [16]: 19 min; MIC [18]: 0.3 µM (≈ 0.102 µg/mL); EC50 [19]: 0.02 µM; Activity [20]: 1 log10CFU

What does the source list for `Cc1cc2oc(=O)cc(-c3cccc(N)c3)c2c(C)c1-c1ccc(CN2CCOCC2)cc1`?
MIC99 [21]: 0.24 µM (≈ 0.106 µg/mL); Activity [22]: 2 log10CFU

Which results are given for `O=S1(=O)C[C@H](O)[C@@H](N2CCN(c3ccc(F)cc3Cl)CC2)C1`?
solubility [23]: 434 µM (≈ 151 µg/mL); CC50 (HepG2 [1]): > 100 µM; Activity [24]: 1.4 log10CFU; MIC [4]: 2.3 µM (≈ 0.802 µg/mL)

Which Activity [25] does the source give for `O=C(Nc1cccc2c(=O)cc(-c3nnn[nH]3)oc12)c1ccc(OCCCCc2ccccc2)cc1` here?
The Activity was 0.5 log10CFU.

And the Ki [26]?
Its Ki is 139 µM.

What about the MIC90 [4] of the same molecule?
Its MIC90 is 10 µM (≈ 4.82 µg/mL).

For `COc1ccc(OCc2nn3c(-c4ccc(Br)cc4)nnc3s2)cc1`, which CC50 (HepG2 [1]) is on record?
Its CC50 is 50 µM.

And the Activity [27]?
Its Activity is 1.7 log10CFU.

What about the IC50 [28] of the same molecule?
Its IC50 is 29 µM.

What about the IC50 (Cytochrome P450 1A2) of the same molecule?
The IC50 was 0.56 µM.

And the IC50 (Cytochrome P450 2C9)?
The IC50 was 0.56 µM.

What about the IC50 (Cytochrome P450 2C19) of the same molecule?
The IC50 was 0.56 µM.

What about the half-life [29] of the same molecule?
The half-life was 1.1 min.

And the half-life [30]?
The half-life was 1.2 min.

What about the half-life [31] of the same molecule?
The half-life was 17 min.

What about the half-life [32] of the same molecule?
Its half-life is 66 min.

And the bioavailability [33]?
The bioavailability was 14%.

What about the MIC [4] of the same molecule?
Its MIC is 4.8 µM (≈ 2 µg/mL).

Which MIC [34] does the source give for `CCCCS(=O)(=O)Nc1ccc2[nH]ncc2c1` here?
Its MIC is 1.2 µM (≈ 0.304 µg/mL).

What about the Activity [35] of the same molecule?
Its Activity is 2 log10CFU.

For `O=C(/C=C/c1cccs1)N1CCN(Cc2ccc3c(c2)OCO3)CC1`, which MIC90 [36] is on record?
The MIC90 was 0.14 µM (≈ 0.0499 µg/mL).

What about the Activity [37] of the same molecule?
Its Activity is 0.4 log10CFU.

What about the CC50 (HepG2 [38]) of the same molecule?
The CC50 was 140 µM.
